The source of these data is paper PMC5354814, “In silico and in vitro drug screening identifies new therapeutic approaches for Ewing sarcoma” (Oncotarget, 2016).

The test system of one data set is COG-E-352. In words: Hits validation, dose-response cell proliferation (CellTiter-Glo). To be noted: 12-point dose-response 50 μmol/L to 1 nmol/L, mean ± SD. It is filed as cell-based. The gist of the method:
(§1)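 Dose-response proliferation test: drugs spanning 1 nmol/L–50 μmol/L were added one day after seeding 750–1,500 cells per well. CellTiter-Glo signal gave IC50s.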
Background: Cellular ATP, detected with luciferase, serves as a proxy for viable cell number.

For a further data set, the system named is Hs 863.T. Described as above. The data set is classed as cell-based. As to conditions: control cell line, 12-point dose-response, mean ± SD. The gist of the method:
as §1

The next data set has as its system A673. The data set is described as above. The data set is classed as cell-based. To be noted: 12-point dose-response 50 μmol/L to 1 nmol/L, mean ± SD. In outline: as §1
The subject of the next data set is Hs 822.T. The data set is described as above. The data set is classed as cell-based. To be noted: control cell line, 12-point dose-response, mean ± SD. In outline:
as §1

A further data set concerns TC-71. Described as above. The data set is classed as cell-based. To be noted: 12-point dose-response 50 μmol/L to 1 nmol/L, mean ± SD. The gist of the method:
as §1

The next data set deals with RD-ES. Described as above. As to conditions: 12-point dose-response 50 μmol/L to 1 nmol/L, mean ± SD. The data set is classed as cell-based. In outline:
as §1

The subject of another data set is CHLA-258. The description is as above. The data set is classed as cell-based. As to conditions: 12-point dose-response 50 μmol/L to 1 nmol/L, mean ± SD. In outline: as §1
In another data set the test system is SK-ES-1. The data set is described as above. The data set is classed as cell-based. As to conditions: 12-point dose-response 50 μmol/L to 1 nmol/L, mean ± SD. The gist of the method: as §1
Data set [1] in a line: Other animal xenograft models, oral auranofin. The data set is classed as in vivo. To be noted: unpublished data. From the text: As previously reported, Ridaura® was first developed for the management of rheumatoid arthritis as a disease-modifying anti-rheumatic drug (DMARD). However, the adverse effects and the concerns about the long-term consequences of the immunosuppression induced by Ridaura® led to the decline in its use. […] Therefore, we sought to determine if altering the route of delivery could replicate the dramatic in vitro anticancer activity and improve its efficacy in vivo. Previous studies have shown that orally delivered auranofin is rapidly metabolized and intact auranofin has never been detected in the blood. Thus, studies of the pharmacokinetics of auranofin have involved measurement of gold concentrations. Upon oral administration, 25% of auranofin gets absorbed.

In another data set the test system is platelet. On the set-up: method as in ref 19 (a number printed in a supplementary file, which may have a reference list of its own: not looked up in the article's list). As to conditions: 10 µg/mL; cited from earlier work.
Details of data set [2]: method as in ref 19 (a number printed in a supplementary file, which may have a reference list of its own: not looked up in the article's list). To be noted: rats, cited from earlier work.
Details of data set [3]: method as in ref 19 (a number printed in a supplementary file, which may have a reference list of its own: not looked up in the article's list). To be noted: cited from earlier work.
Details of data set [4]: method as in ref 19 (a number printed in a supplementary file, which may have a reference list of its own: not looked up in the article's list). To be noted: 5 and 10 mg gold/kg p.o.; cited from earlier work.
Details of data set [5]: method as in ref 19 (a number printed in a supplementary file, which may have a reference list of its own: not looked up in the article's list). To be noted: dogs, cited from earlier work.
For data set [6] the following is noted: cited from earlier work.
Data set [7] has as its system human neutrophil and monocyte. On the set-up: method as in ref 19 (a number printed in a supplementary file, which may have a reference list of its own: not looked up in the article's list). To be noted: 0.1 - 1.0 µg auranofin/mL; cited from earlier work.

Like-named read-outs stand apart in the source and are kept apart here.

For `CC(=O)OC[C@H]1O[C@@H]([S-])[C@H](OC(C)=O)[C@@H](OC(C)=O)[C@@H]1OC(C)=O.CCP(CC)CC.[Au+]` [Auranofin, auranofin], the IC50 in the data set with COG-E-352 was found to be 820 ± 190 nM; with Hs 863.T., 3250 ± 120 nM; in the data set with A673, 330 ± 220 nM; in the data set with Hs 822.T. it was 1450 ± 90 nM; in the data set on TC-71, 260 ± 140 nM; with RD-ES, 2450 ± 520 nM. The concentration for half-maximal inhibition (IC50) stood at 380 ± 190 nM in the data set with CHLA-258 and 80 nM with SK-ES-1. For the same molecule, the “efficacy when given orally” value in data set [1] is “not effective”. In the data set with platelet, the “epinephrine-, ADP-, or collagen-induced platelet aggregation” value is “potent”. Moreover, in data set [2] (oral 3.6, 12 and 23 mg/kg/day, 12 months), the “chronic toxicity, histological examination” value was “dose-related karyomegaly and cytomegaly of the renal tubular epithelial”. Besides, the subacute toxicity findings result is reported as “Dose-related increase in salivation, decrease in hemoglobin” in [2] (oral 3.6, 12 and 36 mg/kg/day, 3 months); “Dose-related emesis, diarrhea, decreased food consumption” in data set [5] (oral 1.8, 3.6-7.2 and 6.9-18.0 mg/kg/day, 3 months). Also, the “adenomas of the renal cortical tubular epithelium” value in data set [2] (oral, 12 months, 23 mg/kg/day) is given as “occurred in 2 females in the high dose”. The “effect on hemodynamic and electrocardiographic parameters, pulmonary function, CNS activity, gastric mucosa or endocrine system” value in data set [3] was “no significant effect”. The “low-grade oxazolone-induced contact sensitivity” value in data set [4] was “stimulated”. Besides, in [5] (oral 0.6, 1.2 and 2.4-6.0 mg/kg/day, 12 months), the “chronic toxicity, anemia in middle and high dose groups” value is “intravascular hemolytic anemia”. The “teratogenic effects in pregnant mice” value in [6] (5 mg/kg/day) is reported as “no ter atogenic”. The “embryotoxic or teratogenic effect in mice” value in [6] (oral 0.2, 1 and 5 mg/kg/day, days 6-15 of pregnancy) is “no embryotoxic or teratogenic effect”. In data set [7], the chemotaxis result is “inhibited”.

In general, IC50 refers to the concentration needed to halve the response being measured.
